Laboratory results taken from patent US20250177375A1, “AZAPHILONE COMPOUND AND USE THEREOF IN PREPARATION OF ANTI-TUMOR DRUGS” (OCEAN UNIVERSITY OF CHINA, priority 2022, published 2025).
Entries after “also recorded” stand apart in the source; their conditions may differ.

Experiments:
NK92 cells [1] = assay: Killing function of NK92 cells against tumor cells after compound treatment (LDH assay, initial screening); format: cell-based, Human; conditions: for cytotoxicity at 0.1 µM: Homo sapiens, NK92 treated at 100 nM for 72 h, effector-to-target ratio 5:1, 5 h co-culture, LDH release, read-out: tumor killing rate by NK activation
Description: (§1) Seed the NK92 cells obtained from 1.3 into a 24-well cell culture plate (referred to as a 24-well plate) at a concentration of 3×10^5 cells/well, with 4 wells designated as blank or drug-treated. For the drug-treated wells, set the initial screening concentration to 100 nM. Add 900 μL of cell suspension and 100 μL of drug to each well. For the blank wells, add 100 μL of double-distilled water. Incubate the 24-well plate in a 37° C., 5% CO2 incubator for 72 h. Replace the fresh culture medium and add drugs every 24 h during the incubation.
(§2) Seed various types of tumor cells in logarithmic phase into a 96-well cell culture plate at a concentration of 5×10^3 cells/well. Set up 3 replicate wells for each concentration and include wells for target cell spontaneous release and target cell maximum release. Incubate the 96-well plate overnight in a 37° C., 5% CO2 incubator.
Centrifuge and count the NK92 cells from 2.1 in the 24-well plate cultured for 72 h. Add the cells to the overnight-cultured tumor target cells according to the effector-to-target ratio of 5:1 (excluding wells for target cell spontaneous release and maximum release). Also, set up 3 effector cell control wells. Add 200 μL of cell suspension to each well, then centrifuge at 300 g, 25° C. for 5 min to allow sufficient contact between effector cells and target cells. Continue to place the 96 well plate in a 37° C., 5% CO2 incubator and co-cultivate the NK92 and target cells for 5 h.
Lactate dehydrogenase (LDH) assay kit (BioGend Biotech Co., Ltd.) is used to detect the killing effect of effector cells on target cells. Add LDH release reagent to the wells with target cell maximum release and incubate for 1 h. After 1 h, centrifuge at 500 g, 25° C. for 5 min. Transfer 120 μL of supernatant from each well to a new 96-well plate, add the prepared LDH detection solution (60 μL/well: 20 μL lactate solution, 20 μL 1×INT working solution, and 20 μL enzyme solution) in the dark, and mix well by pipetting. Incubate at room temperature in the dark for 20 min (wrapped in aluminum foil and shook slowly on a shaker). Measure the absorbance at 490 nm using a microplate reader and the measured absorbance value of each well should subtract the absorbance value of the background blank control well.
Cytotoxicity (%)=[(Experimental group−Effector cell control−Target cell spontaneous release)/(Target cell maximum release−Target cell spontaneous release)]×100.

[2] = system: primary NK cells isolated from the peripheral blood of healthy individuals; assay: Primary NK cell activation (CD107 flow cytometry), peripheral blood PBMCs from healthy donors; format: cell-based, Human; conditions: 1, 10, 100 nM, 72 h, K562 targets 5:1, FIG. 6
Description: (§3) CD107 is expressed on the surface of NK cells released by the activator. Therefore, the activation of NK cells can be reflected by detecting the content of CD107 expressed by cell membrane.
(§4) 6.1 Collect peripheral blood from normal individuals and pleural effusion from lung cancer patients using sterile anticoagulant tubes, and dilute with an equal volume of sterile PBS. Take a 50 ml centrifuge tube and absorb a certain volume of lymphocyte separation solution (Solarbio Science & Technology Co., Ltd.). Slowly add diluted peripheral blood and pleural effusion in a volume ratio of 4:3. Centrifuge at 400 g at room temperature for 30 min (Adjust the lifting and deceleration speed of the centrifuge to rise 1 or down 1). 6.2 Carefully absorb the white lymphocyte layer in the middle and place it in PBS (at least three times the volume of the absorbed cells). Overturn and blending, and wash the cells. Centrifuge at 100 g at room temperature for 10 min. Discard the supernatant, resuspend the cell pellet in 10 ml PBS, and gently mix. Wash off residual Ficoll, then centrifuge again at 100 g for 10 min. Discard the supernatant, resuspend the cell pellet in RPMI-1640 complete medium, and continue culture for 3 days with RPMI-1640 complete medium containing 10 ng/ml IL-2 to stimulate primary NK cell expansion and activation. […] The detection results were analyzed using FlowJo software.

cancer cell lines = assay: In vitro assays of cancer cell lines; format: cell-based; conditions: direct activity on cancer cell lines; read-out: IC50 in all in vitro assays of cancer cell lines
Description: In prior research (Sun C.; Ge X.; Mudassir S.; Zhou L.; Yu G.; Che Q.; Zhang G.; Peng J.; Gu Q.; Zhu T. New glutamine-containing azaphilone alkaloids from deep-sea-derived fungus Chaetomium globosum HDN151398. Mar. Drugs 2019, 17, 253.), the inventors discovered compound 1778.

NK92 cells [3] = assay: NK cell proliferation rate using CCK-8; format: cell-based, Human; conditions: 1-10000 nM, 72 h, FIG. 1
Description: 3. Determination of NK Cell Proliferation Rate Using CCK-8 after Treatment with 1778 3.1 Preparation of Compound Concentration Gradient: Dilute the azaphilone compound 1778 with double-distilled water to set up 5 concentrations, with final concentrations of 1, 10, 100, 1000, and 10000 nM in the wells.
Seed NK92 cells obtained from 1.3 into 96-well cell culture plate (referred to as a 96-well plate) at a concentration of 1×10^4 cells/well, […]. Set up 5 replicates for each compound concentration (also need to set a blank group, that is, double-distilled water replaces the compound), and seal wells with PBS. Incubate in a 37° C., 5% CO2 incubator for 72 h.
Remove the cell culture plates from 2.2 and add 10 μL of CCK-8 solution (Shanghai Yisheng Biotechnology Co., Ltd.) to each well, avoiding bubbles. After adding CCK-8 solution, incubate the 96-well cell culture plates in a 37° C., 5% CO2 incubator for 2.5 h. Measure the absorbance at 450 nm using a microplate reader to compare the proliferation level of NK92 cells.

B16F10 melanoma cells = assay: Melanoma lung metastasis model in C57BL/6 mice; format: in vivo; conditions: 25 mg/kg daily intraperitoneal, 14 days; B16F10 via tail vein; FIG. 8
Description: To investigate whether 1778 works in vivo, we used a melanoma lung metastasis model.
Mouse B16F10 melanoma cells were intravenously injected into mice, and then 1778 was administered for efficacy evaluation. B116F10 cells are highly metastatic and lack MHC class-I expression, and it has been previously reported that the metastasis of B116F10 cells in vivo is mainly controlled by NK cells.
7.1 Inject 200,000 B116F10 cells via the tail vein into each C57BL/6J mouse. 7.2 A daily intraperitoneal injection of 1778 at a dose of 25 mg/kg (diluted with PBS solution to a final volume of 200 μL). The control group was injected intraperitoneally with an equivalent volume of PBS (with the same concentration of solvent DMSO). Weigh the mice every other day to monitor the impact on body weight. After 14 days of drug administration, euthanize the mice, collect lung tissue, and fix it in tissue fixative. Count and statistically analyze the number of melanoma colonies in the lungs.

NK92 cells [4] = assay: NK cell activation factor release (ELISA) after co-culture with NCI-H1975; format: cell-based, Human
Description: NK cells release granzyme B and perforin to kill tumor cells upon activation, while release IFN-γ to regulate the mechanism of antitumor immunity.
5.1 Pre-treatment of NK92 Cells with Compound 1778: Seed NK92 cells into a 24-well plate and treat with drug as described in section 3.1.
Seed logarithmic phase NCI-H1975 cells into 96-well plates at a concentration of 1×10^4 cells/well. Set up 3 replicates for each concentration and control wells for target cell. Incubate the 96-well plate overnight in a 37° C., 5% CO2 incubator.
According to the effector-to-target ratio of 5:1, add NK92 cells to NCI-H1975, co-cultivate for over 6 h and centrifuge (500 g, 25° C.). Then collect supernatant (use within 24 h). Use ELISA kits (BD Biosciences, USA) to detect the release of 3 activating cytokines granzyme B (FIG. 3), perforin (FIG. 4), and IFN-γ (FIG. 5).

NK92 cells [5] = assay: Killing ability of NK cell against tumor cells after treatment with 1778 (1, 10, 100 nM); format: cell-based, Human
Description: as §1, §2
Centrifuge and count the NK92 cells from 2.1 in the 24-well plate cultured for 72 h. […]
Lactate dehydrogenase (LDH) assay kit (BioGend Biotech Co., Ltd.) is used to detect the killing effect of effector cells on target cells. […] Measure the absorbance at 490 nm using a microplate reader and the measured absorbance value of each well should subtract the absorbance value of the background blank control well. […]

[6] = system: primary NK cells from the pleural fluid of lung cancer patients; assay: Primary NK cell activation (CD107 flow cytometry), pleural effusion from lung cancer patients; format: cell-based, Human; conditions: 1, 10, 100 nM, 72 h, K562 targets 5:1, FIG. 7
Description: as §3, §4

In the case of `CC[C@H](C)/C=C(C)/C=C/C1=CC2=C(Cl)C(=O)[C@](C)(OC(C)=O)C(=O)C2=CN1[C@@H](CO)C(=O)O` [Compound 1999], the cytotoxicity at 0.1 µM (NK92 cells [1]) is reported as 58.3%.
For `C/C=C(\C)C(=O)C1=C2C3=CN([C@@H](CCC(=O)O)C(=O)O)C(/C=C/[C@@H](C)CC)=CC3=C(Cl)C(=O)[C@@]2(C)OC1=O` [Compound 1778], the “expression of CD107 (degranulation) in primary NK cells” value [2] was “significantly promotes the degranulation; also recorded: significant increase”, the cytotoxicity at 0.1 µM (NK92 cells [1]) was 75.2% and the “activation effect on NK92 cells” value (NK92 cells [1]; summary in words of the 100 nM screening table) was “very strong activation effect”. The IC50 (cancer cell lines) was over 50 µM, the “proliferation of NK92 cells” value (NK92 cells [3]) was “weak proliferative effect; also recorded: promotes the proliferation” and the “number of lung metastases (melanoma colonies in the lungs)” value (B16F10 melanoma cells) was “significant inhibitory effect; also recorded: significantly reduced”. The “release of granzyme B by NK-92 cells” value (NK92 cells [4]; co-culture with NCI-H1975, 5:1, FIG. 3) was “promotes the releases; also recorded: significantly promotes the release”, the “release of perforin by NK-92 cells” value (NK92 cells [4]; co-culture with NCI-H1975, 5:1, FIG. 4) was “promotes the releases; also recorded: significantly promotes the release” and the “release of IFN-γ by NK-92 cells” value (NK92 cells [4]; co-culture with NCI-H1975, 5:1, FIG. 5) was “significantly promotes the release; also recorded: promotes the releases”. For the same molecule, the “ability of NK92 cells to kill various types of tumor cells” value (NK92 cells [5]; 1, 10, 100 nM, FIG. 2) was “significantly enhances; also recorded: significantly promotes the killing activity”, the “concentration at which NK cells are activated” value (NK92 cells [5]; concentrations as low as) was 1 to 100 nM and the “expression of CD107 (degranulation) in primary NK cells” value [6] was “significantly promotes the degranulation; also recorded: significant increase”.
`CC[C@H](C)/C=C(C)/C=C/C1=CC2=C(Cl)C(=O)[C@](C)(OC(C)=O)C(=O)C2=CN1[C@@H](C)C(=O)O` [Compound 1998] gave a cytotoxicity at 0.1 µM (NK92 cells [1]) of 78.4%.
With `CC[C@H](C)/C=C(C)/C=C/C1=CC2=C(Cl)C(=O)[C@](C)(OC(C)=O)C(=O)C2=CN1[C@@H](Cc1ccccc1)C(=O)O` [Compound 2000] the cytotoxicity at 0.1 µM (NK92 cells [1]) was 65.2%.
For `CC[C@H](C)/C=C(C)/C=C/C1=CC2=C(Cl)C(=O)[C@](C)(OC(C)=O)C(=O)C2=CN1[C@H](C(=O)O)[C@@H](C)O` [Compound 2309], the cytotoxicity at 0.1 µM (NK92 cells [1]) was 28.3%.
In the case of `C/C=C(\C)C(=O)C1=C2C3=CN([C@@H](Cc4c[nH]cn4)C(=O)O)C(/C=C/[C@@H](C)CC)=CC3=C(Cl)C(=O)[C@@]2(C)OC1=O` [Compound 2320], the cytotoxicity at 0.1 µM (NK92 cells [1]) is reported as 22.2%.
With `CC[C@H](C)/C=C(C)/C=C/C1=CC2=C(Cl)C(=O)[C@](C)(OC(C)=O)C(=O)C2=CN1[C@@H](CC(C)C)C(=O)O` [Compound 2001] the cytotoxicity at 0.1 µM (NK92 cells [1]) was 18.7%.
`CC[C@H](C)/C=C(C)/C=C/C1=CC2=C(Cl)C(=O)[C@](C)(OC(C)=O)C(=O)C2=CO1` [Compound 2307] gave a cytotoxicity at 0.1 µM (NK92 cells [1]) of 38.3%.
`C/C=C(\C)C(=O)C1=C2C3=CN([C@@H](Cc4c[nH]c5ccccc45)C(=O)O)C(/C=C/[C@@H](C)CC)=CC3=C(Cl)C(=O)[C@@]2(C)OC1=O` [Compound 2318] was tested, and the cytotoxicity at 0.1 µM (NK92 cells [1]) was 35.9%.
Work on `C/C=C(\C)C(=O)C1=C2C3=CN([C@@H](CCC(=O)OC)C(=O)OC)C(/C=C/[C@@H](C)CC)=CC3=C(Cl)C(=O)[C@@]2(C)OC1=O` [Compound 1779] yielded a cytotoxicity at 0.1 µM (NK92 cells [1]) of 22%.
`CC[C@H](C)/C=C(C)/C=C/C1=CC2=C(Cl)C(=O)[C@](C)(OC(C)=O)C(=O)C2=CN1CC(=O)O` [Compound 1996] was tested, and the cytotoxicity at 0.1 µM (NK92 cells [1]) was 6.12%.
For `CC[C@H](C)/C=C(C)/C=C/C1=CC2=C(Cl)C(=O)[C@](C)(OC(C)=O)C(=O)C2=CN1[C@@H](Cc1ccc(O)cc1)C(=O)O` [Compound 1997], the cytotoxicity at 0.1 µM (NK92 cells [1]) was 29.5%.
`CC[C@H](C)/C=C(C)/C=C/C1=CC2=C(Cl)C(=O)[C@](C)(OC(C)=O)C(=O)C2=CN1CCO` [Compound 2308] was tested, and the cytotoxicity at 0.1 µM (NK92 cells [1]) was 8.11%.
